Measurements: patent US7919508B2, “3-piperidinylisochroman-5-ols as dopamine agonists” (Aventis Pharmaceuticals Inc., priority 2004, dated 2011)
Structures can show the parent of a compound that is named as a salt. Where two headings read alike, the source gives them in different places.

What was measured:
[1] = target: human dopamine D2Long (D2L) receptors (Homo sapiens, UniProt P14416)
D1 receptor = target: T1, D1 receptor (Homo sapiens, UniProt P21728); experiment: D1 Activation Adenylyl Cyclase Assay (cAMP FlashPlate, D1 transfected CHO cell line); type: cell-based
T1 construct: expressed in transfected cells; host or cells: D1 transfected CHO cell line
Protocol: D1 Activation Adenylyl Cyclase Assay
Purpose: To measure D1-agonist activity compounds using an Adenylyl Cyclase Activation Flash Plate Assay from NEN.
Buffers: Activation and Detection buffers are provided from NEN: Catalog # SMP004A.
Maintenance of D1 transfected CHO cell line: • 1. Cells are grown in a 150 cc flask in an incubator at 37° C. with 5% CO2 for 2-3 days (4 maximum) until confluent. • 2. Aspirate off old media (Cells adhere to the plastic flask), wash 2× with sterile PBS. • 3. Add ˜5 mL of Trypsin EDTA (enough to cover bottom of the flask) for 5 min. at RT. • 4. Stop digestion with 15 mL of Media (Ham's F12 plus 10% FBS, 1% P/S, 400 μg/mL G418). • Bang flask on counter to release them from the flask. • 5. Add 2 mL of this to 30 mL of Media in a fresh flask. Return to incubator. Preparation of Cells for Assay: • 1. Loosen the cells with 5 mL Vercine (EDTA)/flask for 10 minutes in incubator. • 2. Add 20 mL of Serum-free media/flask. Transfer to 50-mL Falcon tube. • 3. Spin down cells at 1000 RPM for 5 minutes at 4° C. • 4. Aspirate off old media and resuspend in 5 mL of Serum-free media/plate to be done. • 5. Dilute 10 μL 1/10 in 90 μL Trypan Blue solution and count with a hemocytometer. • Count (live cells only) all four areas and average them. • Count X 10^5 equals cells/mL (including accounting for dilution in Trypan). • 6. Dilute to 50,000 cells/50 μL (1,000,000 cells/mL) in Serum-free media. • 7. Put 50 μL/well in Rows 3-12 of a cAMP FlashPlate. • 8. Put in incubator at 37° C. for 2-4 hours, to allow cells to recover and attach. Adenylyl Cyclase Activation Assay: • 1. Prepare the cAMP standards: • Add 130 μL/well of stimulation buffer to each row of a separate 96-well “standard” plate, 2 columns/plate. • Dilute stock cAMP standard 1/5 with stimulation buffer (final concentration is 1000 pmol/mL). Add 130 μL of this to row A. • Make 1/2 serial dilutions by adding 130 μL from each well to the next (A-G), mixing between each. • Final concentrations are: • A: 500, B: 250, C: 125, D: 62.5, E: 31.25, F: 15.6, G: 7.8, H: 0 pmol/mL. • Place 100 μL from each row from 2 columns of the standard plate into columns 1 and 2 of each “reaction” plate. • 2. Prepare the negative and positive control in the “reaction” plate: • Column 3, rows A-D, add 100 μL stimulation buffer (negative control). • Column 3, rows E-H, add 90 μL of stimulation buffer plus 10 μL of 200 μM APO (positive control, […]). (10 μL 10 mM APO, plus 490 μL stim. buffer=1/50 dilution.) • 3. Prepare the agonist compound dilutions in the “compound” plate: • Add 80 μL of stimulation buffer to row A (One column for each compound), and 90 μL of stimulation buffer to rows B—H. • Add 20 μL of 10 mM of each compound to appropriate row A. • Make 1/10 serial dilutions by adding 10 μL from each well to the next (A-H), mixing between each. • 4. […]. Prepare Detection/Stop buffer by adding 90 μL/plate of cAMP-^125I to 10 mL/plate plus 6 mL (for dead volume) of detection buffer. Steps 6-8 performed with the Multi-Mek. • 6. Add 50 μL to each well of the FlashPlate with CHO cells set up earlier. • 7. Incubate at RT for 8 minutes. • 8. Stop reaction by adding 100 μL of detection/stop buffer to each well. • 9. Cover with plastic film and incubate at RT for 16-24 hours (don't wait more than 24 hours). • 10. Count in a Packard Top-Count. Calculations: • 1. Raw signals generated by cAMP standard wells, without cells, are averaged at each cAMP concentration and converted to % B/Bo by dividing the raw signal at each cAMP concentration by the raw signal with no cAMP added. • 2. These values are used to generate a standard curve by plotting cAMP concentration versus % B/Bo. • 3. Raw data for each compound at each concentration is also converted to % B/B. by the same method. • 4. These values are then converted to pmol cAMP/mL using the standard curve. • 5. These cAMP values are then averaged across the three replicates for each compound concentration. • 6. […]

[2] = target: T2, human dopamine D1 receptor (Homo sapiens, UniProt P21728); experiment: [3H]-SCH-23390 binding to cloned human dopamine D1 receptors (CHO cell membranes)
T2 construct: A 1.4 Kb Hind III to Xho I fragment was subcloned into the vector pMMLV; expressed in transfected cells; host or cells: CHO cells, clone CHO-D1M#9 (plasmid pHD1MMLV), membranes

[3] = agonist activity at the D1 receptor, adenylate cyclase assay, D1 transfected CHO cell line, read-out: D1 EC50
[4] = competitive binding, [3H]-SCH-23390, cloned human D1 in CHO membranes, read-out: D1 affinity Ki

T1 sequence (P21728 whole entry): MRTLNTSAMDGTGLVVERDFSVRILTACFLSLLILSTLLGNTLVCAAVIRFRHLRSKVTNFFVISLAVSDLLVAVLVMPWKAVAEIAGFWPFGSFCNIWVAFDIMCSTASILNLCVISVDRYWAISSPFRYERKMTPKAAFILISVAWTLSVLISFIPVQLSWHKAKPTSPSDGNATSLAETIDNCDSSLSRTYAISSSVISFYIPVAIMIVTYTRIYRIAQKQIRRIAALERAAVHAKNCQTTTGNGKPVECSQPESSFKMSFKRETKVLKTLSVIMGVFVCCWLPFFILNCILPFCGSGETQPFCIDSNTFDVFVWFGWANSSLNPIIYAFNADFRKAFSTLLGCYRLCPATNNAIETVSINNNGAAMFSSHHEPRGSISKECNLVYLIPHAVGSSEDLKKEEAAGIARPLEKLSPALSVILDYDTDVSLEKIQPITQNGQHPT
T2 sequence (P21728 whole entry, the tested form may be a part): as the sequence (P21728 whole entry) above
Sequence of human dopamine D2Long (D2L) receptors (P14416 whole entry): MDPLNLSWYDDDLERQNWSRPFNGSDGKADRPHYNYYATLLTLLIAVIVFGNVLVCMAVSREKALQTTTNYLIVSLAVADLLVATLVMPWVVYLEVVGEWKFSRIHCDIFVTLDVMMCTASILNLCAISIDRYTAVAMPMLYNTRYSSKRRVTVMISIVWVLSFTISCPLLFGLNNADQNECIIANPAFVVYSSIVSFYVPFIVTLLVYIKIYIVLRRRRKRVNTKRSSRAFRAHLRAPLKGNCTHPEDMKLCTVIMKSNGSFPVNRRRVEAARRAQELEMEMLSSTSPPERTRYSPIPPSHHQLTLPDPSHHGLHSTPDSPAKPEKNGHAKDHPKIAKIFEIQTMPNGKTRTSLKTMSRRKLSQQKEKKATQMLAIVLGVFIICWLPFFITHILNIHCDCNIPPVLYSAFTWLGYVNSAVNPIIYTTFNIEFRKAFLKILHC

Compound	Ki [1] [nM]	EC50 (D1 receptor; [3]) [nM]	Ki [2, 4] [nM]	EC50 (D1 receptor) [nM]	Ki [2] [nM]
Cc1ccc2c(c1O)C[C@@H](C1CCN(C(=O)Oc3ccccc3)CC1)O[C@H]2CN [Example 113, 4-((1R,3S)-1-Aminomethyl-5-hydroxy-6-methyl-isochroman-3-yl)-piperidine-1-carboxylic acid phenyl ester hydrochloride]	≥ 100000			4.2	30.5
Cc1ccc2c(c1O)C[C@@H](C1CCN(C(=O)Oc3ccc(Cl)cc3)CC1)O[C@H]2CN [Example 115, 4-((1R,3S)-1-Aminomethyl-5-hydroxy-6-methyl-isochroman-3-yl)-piperidine-1-carboxylic acid 4-chloro-phenyl ester hydrochloride]	506			48	39
Cc1ccc2c(c1O)C[C@@H](C1CCN(Cc3ccc(Cl)c(Cl)c3)CC1)O[C@H]2CN [Example 60, (1R,3S)-1-Aminomethyl-3-[1-(3,4-dichloro-benzyl)-piperidin-4-yl]-6-methyl-isochroman-5-ol dihydrochloride]	364	160	11.8		
Cc1ccc2c(c1O)C[C@@H](C1CCN(Cc3ccc(Oc4ccccc4)cc3)CC1)O[C@H]2CN [Example 46, (1R,3S)-1-Aminomethyl-6-methyl-3-[1-(4-phenoxy-benzyl)-piperidin-4-yl]-isochroman-5-ol dihydrochloride]	215	100	49		
Cc1ccc2c(c1O)C[C@@H](C1CCN(C(=O)Oc3ccc(F)cc3)CC1)O[C@H]2CN [Example 118, 4-((1R,3S)-1-Aminomethyl-5-hydroxy-6-methyl-isochroman-3-yl)-piperidine-1-carboxylic acid 4-fluoro-phenyl ester hydrochloride]	≥ 10000			8.5	40

More lines, main results first:

Ki [1] [nM]	EC50 (D1 receptor; [3]) [nM]	Ki [2, 4] [nM]	Compound	EC50 (D1 receptor) [nM]	Ki [2] [nM]
≥ 10000	2000	113	Cc1ccc2c(c1O)C[C@@H](C1CCN(C(=O)Nc3ccccc3F)CC1)O[C@H]2CN [Example 129, 4-((1R,3S)-1-Aminomethyl-5-hydroxy-6-methyl-isochroman-3-yl)-piperidine-1-carboxylic acid (2-fluoro-phenyl)-amide hydrochloride]		
≥ 100000	11	95.2	Cc1ccc2c(c1O)C[C@@H](C1CCN(S(=O)(=O)Cc3ccccc3[N+](=O)[O-])CC1)O[C@H]2CN [Example 158, (1R,3S)-1-Aminomethyl-6-methyl-3-[1-(2-nitro-phenylmethanesulfonyl)-piperidin-4-yl]-isochroman-5-ol hydrochloride]		
655	6	57	Cc1ccc2c(c1O)C[C@@H](C1CCN(Cc3ccc(C(F)(F)F)cc3)CC1)O[C@H]2CN [Example 74, (1R,3S)-1-Aminomethyl-6-methyl-3-[1-(4-trifluoromethyl-benzyl)-piperidin-4-yl]-isochroman-5-ol dihydrochloride]		
602	3.6	91	COc1ccc(S(=O)(=O)N2CCC([C@@H]3Cc4c(ccc(C)c4O)[C@H](CN)O3)CC2)cc1OC [Example 144, (1R,3S)-1-Aminomethyl-3-[1-(3,4-dimethoxy-benzenesulfonyl)-piperidin-4-yl]-6-methyl-isochroman-5-ol hydrochloride]		
≥ 100000	0.6	101	COC(=O)N1CCC([C@@H]2Cc3c(ccc(C)c3O)[C@H](CN)O2)CC1 [Example 112, 4-((1R,3S)-1-Aminomethyl-5-hydroxy-6-methyl-isochroman-3-yl)-piperidine-1-carboxylic acid methyl ester hydrochloride]		
181	≥ 10000		Cc1ccc2c(c1O)C[C@@H](C1CCN(Cc3ccccc3)CC1)O[C@H]2CN1CCCC1 [Example 178, (1R,3S)-3-(1-Benzyl-piperidin-4-yl)-6-methyl-1-pyrrolidin-1-ylmethyl-isochroman-5-ol]		
